The structures appear in SMILES notation. pIC50: −log10 of the molar value. Like-named read-outs stand apart in the source and are kept apart here.

Data on 46 compounds can be found in patent US11286268B1, “EIF4E-inhibiting compounds and methods” (EFFECTOR THERAPEUTICS, INC., priority 2019, dated 2022).

This assay addresses recombinant eIF4E (Homo sapiens (Human), UniProt P06730). Briefly: Fluorescence polarization competition assay for eIF4E binding potency. The procedure, abridged:
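IC50 values reflect 50% displacement of 20 nM EDA-m7GDP-ATTO-550 from 75 nM eIF4E, measured by fluorescence polarization after 30 min at room temperature. Buffer: 20 mM Tris pH 7.5, 100 mM NaCl, 1 mM DTT, 0.02% Tween-20; 1% DMSO.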
(In general: In fluorescence polarisation assays a small probe gives low polarisation when free and higher when bound to something large.)

The mark [1] stands for this setting: fluorescence polarization competition, 75 nM recombinant eIF4E, 20 nM EDA-m7GDP-ATTO-550, IC50 class, read-out: elF4E FP.
[2] abbreviates: inhibition of eIF4E/EDA-m7GDP-ATTO-550 binding, calculated IC50 values, Table 4B, read-out: IC50.
The mark [3] stands for this setting: inhibition of eIF4E/EDA-m7GDP-ATTO-550 binding by 50%, Table 4B calculated values, read-out: IC50.

recombinant eIF4E, sequence (P06730 whole entry): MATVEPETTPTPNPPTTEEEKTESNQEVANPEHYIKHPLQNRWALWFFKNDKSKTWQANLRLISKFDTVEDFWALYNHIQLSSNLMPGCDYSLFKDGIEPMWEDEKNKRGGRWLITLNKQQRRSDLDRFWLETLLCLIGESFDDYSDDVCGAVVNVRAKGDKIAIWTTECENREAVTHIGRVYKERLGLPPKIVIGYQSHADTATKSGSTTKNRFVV

On to `Cc1cc(-c2cc(Cl)ccc2OCCc2nc3cc(N4CCN(C)CC4)c(C(F)(F)F)cc3nc2C)c2scc(C(=O)O)c2n1` [compound 1211], for which the pIC50 is, setting by setting: under setting [1], 6.00 to 7.30; under setting [2], less than 6.00.
For `Cc1nc2cc(CN(C)C)c(C(F)F)c(C#N)c2c(=O)n1CCOc1ccc(Cl)cc1-c1ccnc2c(C(=O)O)csc12` [compound 515], the pIC50 was greater than 7.30 under setting [1] and 7.34 under setting [3].
Take `Cc1nc2cnc(N(C)C3(C)CCN(CC(F)F)CC3)c(C#N)c2c(=O)n1CC#Cc1ccc(Cl)cc1-c1ccnc2c(C(=O)O)csc12` [compound 1413]: under setting [2], the pIC50 was 7.29.
On the same count and under the same terms, the figure for `Cc1nc2cc(C(F)(F)F)c(N3CCN(CC(F)F)CC3)nc2c(=O)n1CC#Cc1ccc(Cl)cc1-c1ccnc2c(C(=O)O)csc12` [compound 1290] is 6.83; for `Cc1nc2cnc(N(C)C3CCN(CC(C)(F)F)CC3)c(C#N)c2c(=O)n1CC#Cc1ccc(Cl)cc1-c1ccnc2c(C(=O)NS(=O)(=O)c3ccn(C)n3)csc12` [compound 1676] it is 8.36.
With `COCCC(CCOC)N(C)c1ncc2nc(C)n(CC#Cc3ccc(Cl)cc3-c3ccnc4c(C(=O)O)csc34)c(=O)c2c1C#N` [1173b], under setting [3], the pIC50 was 7.89.
As for `CCN(c1ncc2nc(C)n(CC#Cc3ccc(Cl)cc3-c3ccnc4c(C(=O)NS(=O)(=O)CCC#N)csc34)c(=O)c2c1C#N)C1CCN(C2COC2)CC1` [compound 1736], the pIC50 under setting [2] is 7.90.
On to `Cc1ccc(F)c(-c2ncc3cc(C)n(CCOc4ccc(Cl)cc4-c4cc(C)nc5c(C(=O)O)csc45)c(=O)c3c2C#N)n1` [compound 1000], for which the pIC50 was greater than 7.30 under setting [1] and 7.78 under setting [3].
For `CCN(c1ncc2nc(C)n(CC#Cc3ccc(Cl)cc3-c3ccnc4c(C(=O)O)csc34)c(=O)c2c1C#N)C1CCN(C2COC2)CC1` [compound 1186] the same measures were greater than 7.30 and 7.70.
Take `Cc1nc2cnc(N3CCN(C(C)(C)C)CC3)c(C#N)c2c(=O)n1CCOc1ccc(Cl)cc1-c1ccnc2c(C(=O)O)csc12` [compound 1313]: the pIC50 under setting [2] is 7.37.
As to `Cc1cc(-c2cc(Cl)ccc2OCCn2c(C)nc3cc(C(F)(F)F)c(-c4ccnc(C)n4)nc3c2=O)c2scc(C(=O)O)c2n1` [compound 769], the pIC50 under setting [1] is greater than 7.30 and the pIC50 under setting [3] was 7.62.
In the case of `Cc1cc(-c2cc(Cl)ccc2OCCn2c(C)nc3cc(Cl)c(N4CCC(O)C4)c(C#N)c3c2=O)c2scc(C(=O)O)c2n1` (stereo not drawn) [compound 1054], the pIC50 by setting is: under setting [1], greater than 7.30; under setting [3], 7.73.
With `Cc1nc2cnc(N(C)C3CCN(C(C)(C)C(F)(F)F)CC3)c(C#N)c2c(=O)n1CCOc1ccc(Cl)cc1-c1ccnc2c(C(=O)O)csc12` [compound 1514], the pIC50 under setting [2] is 7.29.
Turning to `COc1c(CN(C)C)cc2nc(C)n(CCOc3ccc(Cl)cc3-c3cc(C)nc4c(C(=O)O)csc34)c(=O)c2c1C#N` [compound 369], the pIC50 under setting [1] is greater than 7.30 and the pIC50 under setting [3] is 8.88.
Consider `Cc1nc2c(F)cc(S(=O)(=O)N(C)C)c(C#N)c2c(=O)n1CCOc1ccc(Cl)cc1-c1ccnc2c(C(=O)O)csc12` [compound 288], for which the pIC50 is greater than 7.30 under setting [1] and 7.34 under setting [3].
Regarding `Cc1nc2ccc(OC(F)(F)F)c(C#N)c2c(=O)n1CCOc1ccc(Cl)cc1-c1ccnc2c(C(=O)O)csc12` [compound 406], the pIC50 by setting is: under setting [1], greater than 7.30; under setting [3], 7.94.
`CON(C)c1ncc2nc(C)n(CCOc3ccc(Cl)cc3-c3cc(C)nc4c(C(=O)O)csc34)c(=O)c2c1C#N` [compound 976]: the pIC50 under setting [1] is greater than 7.30 and the pIC50 under setting [3] is 7.72.
On to `COc1ncc(C#N)c2c(=O)n(CCOc3ccc(Cl)cc3-c3ccc(C)c4c(C(=O)O)csc34)c(C)nc12` [compound 726], for which the pIC50 was 6.00 to 7.30 under setting [1] and 7.28 under setting [3].
For the compound `Cc1cc(-c2c(C(F)F)cc3nc(C)n(CCOc4ccc(Cl)cc4-c4cc(C)nc5c(C(=O)O)csc45)c(=O)c3c2C#N)cc(C)n1` [compound 1385], the pIC50 under setting [2] is 8.14.
Take `Cc1ccc(-c2cc(Cl)ccc2OCCn2c(C)nc3c(C#N)nc(-c4ccccn4)c(C)c3c2=O)c2scc(C(=O)O)c12` [compound 743]: the pIC50 is, setting by setting: under setting [1], 6.00 to 7.30; under setting [3], 6.73.
As for `Cc1nc2cc(C(F)(F)F)cc(C#N)c2c(=O)n1CCOc1ccc(Cl)cc1-c1ccnc2c(C(=O)O)c[nH]c12` [compound 323], the pIC50 is 6.00 to 7.30 under setting [1] and 7.08 under setting [3].
For the compound `Cc1nc2cc(CN(C)C)c(Cl)c(C#N)c2c(=O)n1CCOc1ccc(Cl)cc1-c1ccnc2c(C(=O)O)csc12` [compound 516], the pIC50 is greater than 7.30 under setting [1] and 7.46 under setting [3].
In the case of `Cc1nc2cnc(N3CCN(C)CC3)c(C#N)c2c(=O)n1CCOc1ccc(Cl)cc1-c1ccnc2ccsc12` [compound 1257], the pIC50 under setting [2] was 7.28.
As to `Cc1cc(-c2cc(Cl)ccc2OCCn2c(C)nc3cc(Cl)c(C(F)F)c(C#N)c3c2=O)c2scc(C(=O)O)c2n1` [compound 586], the pIC50 runs as follows: under setting [1], greater than 7.30; under setting [3], 7.30.
Consider `Cc1cc(-c2cc(Cl)ccc2OCCn2c(C)nc3cc(C(F)(F)F)c(-c4ccc(Cl)nc4)c(C#N)c3c2=O)c2scc(C(=O)O)c2n1` [compound 1059], for which the pIC50 under setting [1] was greater than 7.30 and the pIC50 under setting [3] was 7.95.
Turning to `CCc1sc2c(-c3cc(Cl)ccc3OCCn3c(C)nc4cc(C(F)(F)F)cc(C#N)c4c3=O)ccnc2c1C(=O)O` [compound 591], the pIC50 by setting is: under setting [1], greater than 7.30; under setting [3], 7.35.
Consider `N#Cc1cc(C#N)c2c(=O)n(CCOc3ccc(Cl)cc3-c3cccc(C(=O)O)c3)c(CF)nc2c1` [compound 231], for which the pIC50 under setting [1] is greater than 7.30 and the pIC50 under setting [3] was 7.89.
Take `Cc1cc2cc(C#N)c(CN(C)C)c(C#N)c2c(=O)n1CCOc1ccc(Cl)cc1-c1ccnc2c(C(=O)O)csc12` [compound 511]: the pIC50 by setting is: under setting [1], 6.00 to 7.30; under setting [3], 7.06.
`Cc1nc2cnc(N(C)C3CCN(CC(F)(F)CF)CC3)c(C#N)c2c(=O)n1CC#Cc1ccc(Cl)cc1-c1ccnc2c(C(=O)O)csc12` [compound 1134]: the pIC50 was greater than 7.30 under setting [1] and 7.82 under setting [3].
With `N#Cc1c(C(F)(F)F)ccc2ncn(CCOc3ccc(Cl)cc3-c3cccc(C(=O)O)c3)c(=O)c12` [compound 133], the pIC50 reads like this: under setting [1], 6.00 to 7.30; under setting [3], 7.18.
In the case of `Cc1nc2ccc(C(F)(F)F)c(C#N)c2c(=O)n1CCOc1ccc(Cl)cc1-c1ccnc2c(C(=O)O)csc12` [compound 1935], under setting [2], the pIC50 was 7.10.
Consider `COC(=O)c1csc2c(-c3cc(Cl)ccc3OCCn3c(C)nc4cc(C(F)(F)F)cc(C#N)c4c3=O)ccnc12` [compound 1900], for which the pIC50 under setting [2] was 5.57.
`Cc1nc2cc(C(F)(F)F)c(CN3CCN(C)CC3)c(C#N)c2c(=O)n1CCOc1ccc(Cl)cc1-c1cc(CCF)nc2c(C(=O)O)csc12` [compound 644]: the pIC50 is, setting by setting: under setting [1], greater than 7.30; under setting [3], 8.30.
`Cc1nc2cnc(N(C)C3CCN(CC(F)(F)C(F)F)CC3)c(C#N)c2c(=O)n1CC#Cc1ccc(Cl)cc1-c1ccnc2c(C(=O)NS(=O)(=O)C3COC3)csc12` [compound 1704]: the pIC50 under setting [2] was 8.18.
Regarding `Cc1nc2cnc(N(C)C3CCN(CC4(F)CC4)CC3)c(C#N)c2c(=O)n1CC#Cc1ccc(Cl)cc1-c1ccnc2c(C(=O)O)csc12` [compound 1169], the pIC50 is greater than 7.30 under setting [1] and 7.82 under setting [3].
`COC(=O)c1sc2cc(-c3cc(Cl)ccc3OCCn3c(C)nc4cc(C(F)(F)F)cc(C#N)c4c3=O)cnc2c1O` [compound 664]: the pIC50 is 6.00 to 7.30 under setting [1] and 6.82 under setting [3].
On the same counts, the results for `Cc1cc(-c2cc(Cl)ccc2OCCn2c(C)nc3cc(-c4cccnc4)c(Cl)c(C#N)c3c2=O)c2scc(C(=O)O)c2n1` [compound 1098] are greater than 7.30 and 7.81.
In the case of `Cc1nc2cc(C(F)(F)F)c(N3CCN(C4CC(F)(F)C4)CC3)c(C#N)c2c(=O)n1CCOc1ccc(Cl)cc1-c1ccnc2c(C(=O)O)csc12` [compound 1292], the pIC50 under setting [2] is 7.28.
As to `Cc1nc2cc(CN(C)C)c(OC(F)F)c(C#N)c2c(=O)n1CC#Cc1ccc(Cl)cc1-c1ccnc2c(C(=O)O)csc12` [compound 626], the pIC50 under setting [1] was greater than 7.30 and the pIC50 under setting [3] was 7.98.
Regarding `N#Cc1cc2c(=O)n(CCOc3ccc(Cl)cc3-c3ccc(C#N)c(C(=O)O)c3)cnc2cn1` [compound 94], the pIC50 was less than 6.00 under setting [1] and 5.85 under setting [3].
Turning to `Cc1cc(-c2cc(Cl)ccc2OCCn2c(C)nc3cnc(-n4ccc5ccccc54)c(C#N)c3c2=O)c2scc(C(=O)O)c2n1` [compound 983], the pIC50 was greater than 7.30 under setting [1] and 7.72 under setting [3].
In the case of `Cc1cc(-c2cc(Cl)ccc2OCCn2c(C)nc3cc4c(c(C#N)c3c2=O)CC(N(C)C)C4)c2scc(C(=O)O)c2n1` (stereo not drawn) [compound 611], the pIC50 is greater than 7.30 under setting [1] and 8.11 under setting [3].
`Cc1nc2cnc(N(C)[C@H]3[C@@H]4C[C@H]3CN(CC(C)(F)F)C4)c(C#N)c2c(=O)n1CC#Cc1ccc(Cl)cc1-c1ccnc2c(C(=O)O)csc12` [compound 1577]: the pIC50 under setting [2] was 7.88.
`Cc1cc(-c2cc(Cl)ccc2OCCn2c(C)nc3cc(Cl)c(N4CCC4(C)C)c(C#N)c3c2=O)c2scc(C(=O)O)c2n1` [compound 918]: the pIC50 under setting [1] was greater than 7.30 and the pIC50 under setting [3] is 8.36.
Consider `Cc1nc2cc(CN(C)C)c(C(F)(F)F)c(C#N)c2c(=O)n1CC#Cc1ccc(Cl)cc1-c1ccnc2c(C(=O)O)csc12` [compound 623], for which the pIC50 is greater than 7.30 under setting [1] and 8.32 under setting [3].
Regarding `Cc1cc(-c2cc(Cl)ccc2C#CCn2c(C)nc3cc(C(F)(F)F)c(N4CCN(C)CC4)c(C#N)c3c2=O)c2scc(C(=O)O)c2n1` [compound 1213], the pIC50 is greater than 7.30 under setting [1] and 7.37 under setting [2].
